Measurements published in paper PMC4730229, “Benzobisthiazoles Represent a Novel Scaffold for Kinase Inhibitors of CLK Family Members” (Biochemistry, 2015).

Assays:
Type in all cases: biochemical
firefly luciferase = assay: Luciferase inhibition assay (Kinase-Glo, no kinase); conditions: compound at 10 μM
Method: For analysis of luciferase inhibition, 10 μL of luciferase reagent (Kinase-Glo, Promega) was added to 10 μL of a mixture consisting of 1 μM ATP and 5 μM S6K and 10 μM compound (potential kinase inhibitor) in buffer A in the absence of kinase and incubated for 10 min at room temperature in a white well plate before the luminescence was read. The percentage of inhibition is equal to (luminescence in the assay without compound – luminescence in the assay with compound)/(luminescence in the assay without compound) × 100.

[1] = biological target: T1, GST-CLK2cd (CLK2 catalytic domain) (Homo sapiens, UniProt P49760); assay: High-throughput screen, Kinase-Glo in vitro kinase assay; conditions: compound at 10 μM; read-out: percentage of inhibition on CLK2 (primary screen)
T1 construct: cDNA encoding the CLK2 catalytic domain (CLK2cd, amino acids 140–496); made in house; host or cells: Escherichia coli BL21(DE3)-R3-lambda-PPase
Method: A small molecule inhibitor library consisting of 1600 compounds was obtained from LIFE Chemicals (Kiev, Ukraine). These compounds are part of the CUTE kinase collection that was predicted by in silico profiling against a panel of targets and includes potent kinase inhibitor compounds.[16] Compounds were dissolved as 10 mM stocks in DMSO and stored at room temperature, in the presence of 5% humidity and 5% oxygen in the dark in a Roylan Storage Pod system. Compounds were dispensed into white 384-well plates using the Labcyte Echo520 instrument at a final concentration of 10 μM. Next, 5 μL of 144.92 nM purified GST-CLK2cd in kinase assay buffer A was added to the compounds, incubated for 10 min at room temperature prior to addition of 5 μL of a 2 μM ATP/10 μM S6K peptide mixture, and incubated again for 60 min at room temperature. Subsequently, 10 μL of Kinase-Glo was added to the wells, and the plates were analyzed after 10 min on the Envision II multilabel plate reader (PerkinElmer). […] The percentage of inhibition is equal to 100 – [(total ATP before assay – remaining ATP in assay with compound)/(total ATP before assay – remaining ATP in assay with DMSO) × 100].

MSK1 = MSK1 (Homo sapiens, UniProt O75582); assay: Kinase profiling (radioactive filter binding); conditions: 1 uM compound
Method: (§1) 3A5 and 5E4 were sent to the International Centre for Kinase Profiling at the MRC Protein Phosphorylation and Ubiquitylation Unit for profiling (as described in ref ([17])). Compounds were profiled against 140 kinases using a radioactive ([^33P]ATP) filter binding assay at a concentration of 1 μM. Results were obtained as inhibition of kinase activity and are listed in Supplementary Table 2.

PIM1 = PIM1 (Homo sapiens, UniProt P11309); assay: Kinase profiling (radioactive filter binding); conditions: 1 uM compound
Method: as §1

JNK1 = JNK1 (Homo sapiens, UniProt P45983); assay: Kinase profiling (radioactive filter binding); conditions: 1 uM compound
Method: as §1

CK2 = CK2 (Homo sapiens, UniProt P68400); assay: Kinase profiling (radioactive filter binding); conditions: 1 uM compound
Method: as §1

ASK1 = ASK1 (Homo sapiens, UniProt Q99683); assay: Kinase profiling (radioactive filter binding); conditions: 1 uM compound
Method: as §1

MAP4K3 = MAP4K3 (Homo sapiens, UniProt Q8IVH8); assay: Kinase profiling (radioactive filter binding); conditions: 1 uM compound
Method: as §1

EPH-A2 = EPH-A2 (Homo sapiens, UniProt P29317); assay: Kinase profiling (radioactive filter binding); conditions: 1 uM compound
Method: as §1

SYK = SYK (Homo sapiens, UniProt P43405); assay: Kinase profiling (radioactive filter binding); conditions: 1 uM compound
Method: as §1

PRAK = PRAK (Homo sapiens, UniProt Q8IW41); assay: Kinase profiling (radioactive filter binding); conditions: 1 uM compound
Method: as §1

BRSK1 = BRSK1 (Homo sapiens, UniProt Q8TDC3); assay: Kinase profiling (radioactive filter binding); conditions: 1 uM compound
Method: as §1

LKB1 = LKB1 (Homo sapiens, UniProt Q15831); assay: Kinase profiling (radioactive filter binding); conditions: 1 uM compound
Method: as §1

p38b MAPK = p38b MAPK (Homo sapiens, UniProt Q15759); assay: Kinase profiling (radioactive filter binding); conditions: 1 uM compound
Method: as §1

PAK4 = PAK4 (Homo sapiens, UniProt O96013); assay: Kinase profiling (radioactive filter binding); conditions: 1 uM compound
Method: as §1

CLK2 = CLK2 (Homo sapiens, UniProt P49760); assay: Kinase inhibition assay, IC50; set-up: cDNA encoding the CLK2 catalytic domain (CLK2cd, amino acids 140–496); made in house; host or cells: Escherichia coli BL21(DE3)-R3-lambda-PPase; conditions: relative to 3A5
Sequence of CLK2 (P49760 140-496): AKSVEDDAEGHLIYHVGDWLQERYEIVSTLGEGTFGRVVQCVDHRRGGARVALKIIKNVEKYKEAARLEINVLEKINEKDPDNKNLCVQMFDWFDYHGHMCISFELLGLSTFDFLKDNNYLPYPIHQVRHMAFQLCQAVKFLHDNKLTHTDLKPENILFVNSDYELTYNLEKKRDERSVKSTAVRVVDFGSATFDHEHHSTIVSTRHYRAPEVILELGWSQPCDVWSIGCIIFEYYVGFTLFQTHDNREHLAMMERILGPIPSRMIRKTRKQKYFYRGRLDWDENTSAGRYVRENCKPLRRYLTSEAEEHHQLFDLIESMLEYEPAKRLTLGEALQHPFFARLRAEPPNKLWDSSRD

Sequence of CK2 (P68400 whole entry): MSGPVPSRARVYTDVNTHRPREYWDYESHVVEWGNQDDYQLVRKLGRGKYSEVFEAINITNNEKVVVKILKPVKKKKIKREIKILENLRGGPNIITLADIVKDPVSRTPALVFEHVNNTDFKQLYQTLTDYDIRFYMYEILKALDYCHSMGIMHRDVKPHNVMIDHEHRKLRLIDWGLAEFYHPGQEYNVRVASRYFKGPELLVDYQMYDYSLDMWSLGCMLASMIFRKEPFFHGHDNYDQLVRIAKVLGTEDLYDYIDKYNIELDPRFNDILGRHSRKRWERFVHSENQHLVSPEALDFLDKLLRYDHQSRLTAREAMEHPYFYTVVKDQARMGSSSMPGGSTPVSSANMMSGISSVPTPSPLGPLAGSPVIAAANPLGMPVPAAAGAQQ
Sequence of MSK1 (O75582 whole entry): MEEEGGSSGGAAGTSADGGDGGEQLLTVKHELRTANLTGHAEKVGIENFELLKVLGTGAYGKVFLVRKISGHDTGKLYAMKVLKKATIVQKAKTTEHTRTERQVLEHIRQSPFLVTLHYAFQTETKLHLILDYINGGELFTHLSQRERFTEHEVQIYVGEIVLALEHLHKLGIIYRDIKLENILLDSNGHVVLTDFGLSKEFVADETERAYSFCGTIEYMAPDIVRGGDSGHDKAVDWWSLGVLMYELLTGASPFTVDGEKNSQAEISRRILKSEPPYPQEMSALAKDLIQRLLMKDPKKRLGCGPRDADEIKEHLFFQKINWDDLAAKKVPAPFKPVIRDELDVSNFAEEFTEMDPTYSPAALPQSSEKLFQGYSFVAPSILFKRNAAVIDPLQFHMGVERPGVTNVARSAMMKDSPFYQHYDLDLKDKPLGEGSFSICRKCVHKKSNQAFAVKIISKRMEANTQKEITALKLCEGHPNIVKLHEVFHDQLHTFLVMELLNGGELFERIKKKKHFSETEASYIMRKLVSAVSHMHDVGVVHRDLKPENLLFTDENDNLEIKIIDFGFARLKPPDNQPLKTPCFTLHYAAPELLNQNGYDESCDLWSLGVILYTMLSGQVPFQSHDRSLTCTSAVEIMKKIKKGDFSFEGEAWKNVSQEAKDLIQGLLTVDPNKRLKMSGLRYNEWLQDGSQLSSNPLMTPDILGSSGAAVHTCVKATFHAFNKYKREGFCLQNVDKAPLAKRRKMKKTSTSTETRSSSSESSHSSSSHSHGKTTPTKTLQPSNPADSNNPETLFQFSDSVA
Sequence of p38b MAPK (Q15759 whole entry): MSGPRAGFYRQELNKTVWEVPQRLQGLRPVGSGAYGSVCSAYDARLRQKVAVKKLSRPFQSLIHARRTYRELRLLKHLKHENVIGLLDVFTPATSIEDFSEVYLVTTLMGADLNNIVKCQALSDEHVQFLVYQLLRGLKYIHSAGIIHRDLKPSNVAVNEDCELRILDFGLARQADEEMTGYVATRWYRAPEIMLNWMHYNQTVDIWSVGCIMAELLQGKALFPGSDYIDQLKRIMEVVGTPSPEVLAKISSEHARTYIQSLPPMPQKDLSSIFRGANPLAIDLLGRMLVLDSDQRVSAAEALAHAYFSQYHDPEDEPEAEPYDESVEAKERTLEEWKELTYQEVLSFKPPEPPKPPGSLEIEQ
Sequence of PAK4 (O96013 whole entry): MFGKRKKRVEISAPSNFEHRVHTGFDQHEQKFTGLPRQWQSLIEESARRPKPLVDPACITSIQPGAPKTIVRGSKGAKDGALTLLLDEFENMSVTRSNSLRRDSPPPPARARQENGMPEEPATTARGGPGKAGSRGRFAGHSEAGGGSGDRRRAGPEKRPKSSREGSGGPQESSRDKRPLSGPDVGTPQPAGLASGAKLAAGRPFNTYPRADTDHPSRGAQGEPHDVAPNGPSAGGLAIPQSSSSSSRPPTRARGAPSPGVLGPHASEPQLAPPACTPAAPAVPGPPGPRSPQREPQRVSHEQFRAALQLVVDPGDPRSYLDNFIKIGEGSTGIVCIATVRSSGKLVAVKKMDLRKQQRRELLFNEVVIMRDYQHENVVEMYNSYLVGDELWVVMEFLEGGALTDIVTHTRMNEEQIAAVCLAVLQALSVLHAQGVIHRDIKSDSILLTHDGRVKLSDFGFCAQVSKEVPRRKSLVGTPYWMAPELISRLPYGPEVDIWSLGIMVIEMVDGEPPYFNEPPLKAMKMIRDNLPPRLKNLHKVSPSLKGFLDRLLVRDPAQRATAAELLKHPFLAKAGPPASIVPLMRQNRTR
T1 sequence (P49760 140-496): as the sequence (P49760 140-496) above
Sequence of BRSK1 (Q8TDC3 whole entry): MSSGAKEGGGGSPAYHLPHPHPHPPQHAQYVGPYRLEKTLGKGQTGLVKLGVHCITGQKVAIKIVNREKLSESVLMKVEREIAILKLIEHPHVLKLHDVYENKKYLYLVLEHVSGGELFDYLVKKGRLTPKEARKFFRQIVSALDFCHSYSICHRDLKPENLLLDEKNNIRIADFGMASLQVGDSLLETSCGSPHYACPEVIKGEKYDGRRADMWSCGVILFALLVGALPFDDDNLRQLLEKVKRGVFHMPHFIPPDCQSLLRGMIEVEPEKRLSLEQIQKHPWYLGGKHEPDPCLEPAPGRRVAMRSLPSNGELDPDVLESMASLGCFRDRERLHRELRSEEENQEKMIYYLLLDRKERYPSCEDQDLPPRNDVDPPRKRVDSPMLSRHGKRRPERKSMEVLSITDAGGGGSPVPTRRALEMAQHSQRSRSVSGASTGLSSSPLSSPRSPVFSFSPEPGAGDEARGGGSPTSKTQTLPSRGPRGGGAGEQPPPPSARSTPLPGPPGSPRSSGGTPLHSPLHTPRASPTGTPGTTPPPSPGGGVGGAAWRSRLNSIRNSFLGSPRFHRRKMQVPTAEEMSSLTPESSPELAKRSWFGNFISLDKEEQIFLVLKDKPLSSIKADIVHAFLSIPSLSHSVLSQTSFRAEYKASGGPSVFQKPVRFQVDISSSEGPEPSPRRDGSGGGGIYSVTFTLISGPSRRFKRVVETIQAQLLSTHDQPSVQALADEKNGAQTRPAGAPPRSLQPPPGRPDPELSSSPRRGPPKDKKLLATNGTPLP
Sequence of ASK1 (Q99683 whole entry): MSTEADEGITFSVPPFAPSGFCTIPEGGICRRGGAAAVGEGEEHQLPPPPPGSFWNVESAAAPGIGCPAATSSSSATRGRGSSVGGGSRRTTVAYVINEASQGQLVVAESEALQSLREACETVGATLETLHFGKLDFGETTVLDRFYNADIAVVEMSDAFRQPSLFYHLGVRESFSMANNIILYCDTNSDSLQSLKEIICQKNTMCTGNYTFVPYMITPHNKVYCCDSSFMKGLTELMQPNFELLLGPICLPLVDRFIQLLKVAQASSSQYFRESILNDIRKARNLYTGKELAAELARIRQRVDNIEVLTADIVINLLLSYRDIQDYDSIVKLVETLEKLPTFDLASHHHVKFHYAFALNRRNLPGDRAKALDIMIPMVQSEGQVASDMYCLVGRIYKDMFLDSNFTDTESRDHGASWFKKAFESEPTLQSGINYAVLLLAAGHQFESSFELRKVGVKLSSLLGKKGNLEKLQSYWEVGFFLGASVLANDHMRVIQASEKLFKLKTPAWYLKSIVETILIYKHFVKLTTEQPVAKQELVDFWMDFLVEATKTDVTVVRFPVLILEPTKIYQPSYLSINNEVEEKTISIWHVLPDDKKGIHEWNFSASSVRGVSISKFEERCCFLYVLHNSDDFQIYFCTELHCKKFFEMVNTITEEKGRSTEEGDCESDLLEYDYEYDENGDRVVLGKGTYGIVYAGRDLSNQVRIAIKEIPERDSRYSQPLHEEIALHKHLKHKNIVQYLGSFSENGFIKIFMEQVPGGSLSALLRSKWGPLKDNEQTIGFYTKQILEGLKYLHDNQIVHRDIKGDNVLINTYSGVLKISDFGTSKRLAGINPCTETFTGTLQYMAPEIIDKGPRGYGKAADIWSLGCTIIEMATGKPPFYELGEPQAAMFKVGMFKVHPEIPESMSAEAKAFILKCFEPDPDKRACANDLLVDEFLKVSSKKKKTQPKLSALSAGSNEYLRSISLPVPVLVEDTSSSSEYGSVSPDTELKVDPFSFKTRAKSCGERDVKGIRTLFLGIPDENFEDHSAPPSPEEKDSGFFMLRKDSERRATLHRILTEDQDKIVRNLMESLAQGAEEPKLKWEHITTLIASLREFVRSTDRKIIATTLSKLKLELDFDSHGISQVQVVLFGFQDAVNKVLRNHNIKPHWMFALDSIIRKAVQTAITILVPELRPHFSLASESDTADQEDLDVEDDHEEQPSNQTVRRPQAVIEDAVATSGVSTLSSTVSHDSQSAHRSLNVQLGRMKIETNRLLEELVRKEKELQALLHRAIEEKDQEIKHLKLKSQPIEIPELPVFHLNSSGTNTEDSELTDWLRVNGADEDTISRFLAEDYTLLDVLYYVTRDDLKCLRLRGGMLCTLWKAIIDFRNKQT
Sequence of PIM1 (P11309 whole entry): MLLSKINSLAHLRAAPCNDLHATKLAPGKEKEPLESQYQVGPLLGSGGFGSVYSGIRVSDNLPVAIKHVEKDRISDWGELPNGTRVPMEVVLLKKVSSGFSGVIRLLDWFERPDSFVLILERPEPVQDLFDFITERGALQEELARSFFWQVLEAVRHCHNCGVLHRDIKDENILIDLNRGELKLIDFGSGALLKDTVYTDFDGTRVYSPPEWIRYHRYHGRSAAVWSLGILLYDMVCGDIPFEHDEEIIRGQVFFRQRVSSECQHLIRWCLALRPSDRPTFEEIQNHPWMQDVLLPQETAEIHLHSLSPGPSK

Row | Structure (SMILES) | % inhibition of luciferase (firefly luciferase) [%] | inhibition at 10 µM [1] [%] | MSK1 activity in kinase profiling (MSK1) | PIM1 activity in kinase profiling (PIM1) | JNK1 activity in kinase profiling (JNK1) | CK2 activity in kinase profiling (CK2) | ASK1 activity in kinase profiling (ASK1) | MAP4K3 activity in kinase profiling (MAP4K3) | EPH-A2 activity in kinase profiling (EPH-A2) | SYK activity in kinase profiling (SYK) | PRAK activity in kinase profiling (PRAK) | BRSK1 activity in kinase profiling (BRSK1) | LKB1 activity in kinase profiling (LKB1) | p38b MAPK activity in kinase profiling (p38b MAPK) | PAK4 activity in kinase profiling (PAK4) | decrease of inhibition against CLK2 compared to 3A5 (CLK2)
1 | Cc1nc2ccc3sc(NC(=O)c4ccc5ncsc5c4)nc3c2s1 [3A5, N-(2-methyl[1,3]thiazolo[5,4-e][1,3]benzothiazol-7-yl)-1,3-benzothiazole-6-carboxamide] | 6.7 ± 2.8 | 68 | 86 | 71 | 67 | 105 | 59 | 125 | 134 | 99 | 89 | 101 | 79 | 100 | 84 | 
2 | CSc1nc2ccc3nc(NC(=O)c4ccco4)sc3c2s1 [5E4, N-[7-(methylsulfanyl)[1,3]thiazolo[4,5-g][1,3]benzothiazol-2-yl]-2-furamide] | 29.7 ± 2.9 | 57 | 109 | 96 | 91 | 77 | 84 | 121 | 162 | 102 | 85 | 86 | 79 | 98 | 74 | 2–3 fold
